{"source": "patent US6852708B2", "about": "“Use of hyaluronic acid and forms to prevent the narrowing of the vascular walls” (Jagotec AG, priority 1991, dated 2005)", "key": {"[1]": {"system": "Human neutrophils", "assay": "Chemotaxis of neutrophils to IL-8", "type": "cell-based", "details": "100 ng/mL IL-8; peptide 2 μg/mL; FIG. 10", "method": "(§1) The HA-binding region of RHAMM consists of two 10 amino acid domains located close to the carboxy terminus of the protein^15. A peptide mimicking Domain I (amino acides^401-411)—[…]—and a scrambled peptide consisting of the same amino acids arranged in a random manner-———-were synthesized at the Manitoba Institute of Cell Biology. Both peptides were used at a final concentration of 2 μg/mL in locomotion assays.\nHuman neutrophils were obtained from peripheral blood samples of normal volunteers and mixed in ACD solution (0.085) M trisodium citrate, 0.065 M citric acid, 2% Dextrose) to prevent clotting. 5% Dextran was added and the separated plasma and white blood cells were removed. The cells were washed twice in PBS, pH 7.2 and a Ficoll gradient was used to separate the lymphocytes. The isolated neutrophils were then washed and resuspended in PBS. […]\n(§2) Chemotaxis was stimulated using either bacterial endotoxin-activated mouse serum (AS), prepared according to Stevenson et al.^18 for macrophage cell lines, or 100 ng/mL interleukin-8 (IL-8) for meutrophils. […] The number of displaced cells was quantified by the addition of 3-(4.5-dimethylthiazol-2-yl)-2.5-[…] tetrazolium bromide (MTT) to a final concentration of 250 μg/mL that was incubated at 37° C. for 4 hours. […] The plate was analyzed within 2 hours on a microtiter plate ELISA reader with a filter of 540 nm. […]"}, "[2]": {"system": "macrophage cell line S1", "assay": "Chemotaxis of macrophage cell line S1 to endotoxin-activated mouse serum (complement)", "type": "cell-based", "details": "peptide 2 μg/mL; FIG. 11", "method": "as §1\n(§3) The macrophage cell lines S1 and WEHI-3 were used to analyze the effect of antibodies and synthetic peptide on macrophage chemotaxis to endotoxin-activated mouse serum (AS). These cell lines were also maintained in DME with 10% FCS and 20 mM Hepes buffer, pH 7.2 at 37° C. and 5% CO2 in air.\nas §2, with “meutrophils. Heat-inactivated serum (56° C. for 20 minutes) or medium served as negative controls respectively.” for “meutrophils.”"}, "[3]": {"system": "macrophage cell line WEHI-3", "assay": "Chemotaxis of macrophage cell line WEHI-3 to endotoxin-activated mouse serum (complement)", "type": "cell-based", "details": "peptide 2 μg/mL; FIG. 11", "method": "as §1, §3\nas §2, with “meutrophils. Heat-inactivated serum (56° C. for 20 minutes) or medium served as negative controls respectively.” for “meutrophils.”"}, "[4]": {"system": "smooth muscle cells isolated from bovine aorta", "assay": "Smooth muscle cell migration after wounding of monolayers (timelapse cinemicrography)", "type": "cell-based", "method": "as §1\nSmooth muscles cells were isolated from bovine aorta as described previously for rate aorta^17 and were maintained in Dulbecco's Modified Eagles medium (DME) supplemented with 10% fetal calf serum (FCS) and 20 mM Hepes buffer, pH 7.2 at 37° C. and 5% CO2 in air. All experiments were performed using defined medium [DM, Dulbecco's Modified Eagles medium with 20 mM HEPES buffer, pH 7.2, 0.5 U/mL insulin (beef and pork zinc suspension, Novo Laboratories Ltd., Willowdale, Ontario) and 4 μg/mL transferrin (Sigma Chemical Co., St. Louis, Mo.)], and the culture medium was replaced 24 hours before filming. […]\nInjured cell monlayers were monitored for motility using an 1 M 35 Zeiss inverted microscope to which a video camera (Hamamatsu CCD, Inc., Japan) was attached. […] This program allows quantification of nuclear displacement from a sequence of digitalized images. The motility of thirty cells in each experiment was followed for a period of 24 hours with mean velocities calculated every hour."}, "[5]": {"system": "injured carotid arteries", "assay": "Balloon angioplasty in rabbits perfused with hyaluronan, carotid artery histology", "type": "in vivo, rabbit", "details": "perfused with hyaluronan 5 mg/ml just prior to injury; for adherence / accumulation of white cells on the endothelium of the injured carotid artery: 2, 24, 48 hours after injury", "method": "10 rabbits were anesthetized and balloon angioplasty was performed on them. The rabbits were perfused with hyaluronan (5 mg/ml) or buffer alone and allowed their recover. […] Sections were stained with hematoxylin or with anti RHAMM antibodies. 10 sections of each treatment were analyzed."}, "[6]": {"system": "balloon catheter injured common carotid artery", "assay": "Balloon catheter injury of the common carotid artery in cholesterol-fed rabbits, hyaluronan i.v. bolus then daily s.c.", "type": "in vivo, New Zealand White rabbit", "details": "for reduction in mean intimal macrophage content: versus cholesterol-diet alone, p<0.02; for reduction of the absolute neo-intimal response to injury (absolute size of the neo-intima): versus cholesterol-fed group given saline, p<0.05, 15 mg/kg/day", "excerpt": "Juvenile New Zealand White rabbits (3 to 6 months old), weighing approximately 2.5 kg were obtained from Rosemead Rabbit Co. Essex, UK) and housed in the Biological Services Unit of St. bartholomew's Hospital Medical College, London.\nAfter one week on a commercial rabbit chow diet (Scientific Diet Services, Essex, UK) the animals were started on a 2% cholesterol diet (Scientific Diet Services, Essex, UK). Water was allowed ad libitum.\nOne week after starting the above diet, animals were anaesthetized with intramuscular xylazine [Rompun (Bayer, Suffolk, UK); 40 mg/kg] and ketamine [Vetalar (Parke-Davis, UK); 10 mg/kg]. The left carotid bifurcation was exposed through a paramedian incision, and the external carotid artery prepared for balloon injury. The animals were injected with a bolus of sterile sodium hyaluronate (15 mg/kg) referred to at page 15, line 31 to page 16 line 1 (Hyal Pharmaceutical Corporation, Ontario, Canada) or saline via a marginal ear vein. Endothelium was then removed from the entire left common carotid artery by the passage of an inflated 2F French Fogarty Embolectomy catheter as previously described (Ferns et al 1992). The catheter was then withdrawn, the external carotid tied off, and the skin and deep fascia closed with chromic catgut and discontinuous 3-O silk. The validity of the procedure for endothelial cell denudation was assessed by scanning electron microscopy of a number of carotids from animals killed immediately post-operatively. Animals received a further subcutaneous injection of hyaluronic acid (15 mg/kg) or saline post-operatively, and daily until sacrifice.\nBlood for serum cholesterol was collected from each animal before the start of each experimental diet, peri-operatively and at the time of sacrifice. Samples were separated by centrifugation and stored at −20° C. prior to analysis.\nTwo weeks after carotid de-endothelialization, the animals were sedated with intramuscular xylazine and ketamine and given an intravenous injection of 2% Evans blue in isotonic phosphate-buffered saline. Five minutes later, an abdominal incision was made to access the abdominal aorta for insertion of a cannula connected to a perfusion apparatus, and both jugular veins exposed for perfusion run-off. The animals were then killed by an overdose of anaesthetic and perfused with buffered saline at a rate of 100 ml/minute/kg body weight. When the run-off was clear, the saline was replaced with 4% paraformaldehyde in isotonic PBS at the same flow rate. Perfusion was continued for 15 minutes. After fixation in situ, the denuded and contralateral carotids were dissected free and cleaned of adherent fat and fascia. The segments were immediately rinsed in PBS and placed in fresh 4% paraformaldehyde overnight for paraffin embedding. Some segments were placed into 2.5% glutaraldehyde for subsequent processing for electron microscopy.\nFive micron sections were taken from the blue (de-endothelialised) segments of carotid artery, for haematoxylin and eosin (H&E) staining. Adjacent sections were cut for elastin staining using Verhoeff-Van Geisen (VVG) stain, and immunostaining using monoclonal antibodies directed against rabbit alveolar macrophages (RAM-11) and smooth muscle cell actin (HHF-35), as described by Tsukada et al. (1986).\nSerum cholesterol levels were measured by the CHOD-POD enzymatic-colorimetric method using a Cholesterol C-system kit (Boehringer Corp., Lewes, UK) and a Vitalab 100 autoanalyzer with Precipath U and Precinorm U (Boehringer Corp., Lewes, UK) quality control material.\nThe intimal and medial thickness of each segment was measured using a Zeiss Axioskop microscope equipped with a X10 Achroplan objective, a digitizing pad and an IBM 55SX PC containing a VIDS V interface card and VIDS V software. Measurements were performed in duplicate on three mid-carotid VVG stained sections. […]"}, "[7]": {"system": "balloon angioplasty injured carotid artery", "assay": "Balloon angioplasty injury in cholesterol-fed rabbits, hyaluronan injections administered subcutaneously", "type": "in vivo, rabbit", "method": "Tests were conducted with cholesterol-fed rabbits and the following was found. The tests were of the same nature except that the injections of the hyaluronan (sodium hyaluronate) were administered subcutaneously."}, "[8]": {"details": "MEAN of HYAL + CHOL group, N=15, 2 weeks after injury"}, "[9]": {"details": "hyaluronan-treated group, 2 weeks after injury"}, "[10]": {"details": "individual animals of the HYAL + CHOL group, 2 weeks after injury"}, "[11]": {"details": "mean ± SEM, n=15, Hyal 15 mg/kg/d"}, "[12]": {"details": "HYAL + CHOL group, n=15, s.c. injections"}}, "note": "Several values for one entry are separate records, joined by “and”; a condition that tells them apart may be missing. Equal values may be shown once."}
{"substance": "YKQKIKHVVKLK [peptide aa^401-411]", "values": [{"measurement": "chemotaxis of neutrophils to IL-8", "setting": "[1]", "result": "significantly inhibited"}, {"measurement": "chemotaxis of S1 to endotoxin-activated mouse serum", "setting": "[2]", "result": "inhibited"}, {"measurement": "chemotaxis of WEHI-3 to endotoxin-activated mouse serum", "setting": "[3]", "result": "inhibited"}, {"measurement": "locomotion of smooth muscle cells responding to injury", "setting": "[4]; peptides 100 ng/plate, FIG. 6", "result": "inhibits"}, {"measurement": "rate of translocation of smooth muscle cells following wounding of monolayers", "setting": "[4]; peptides 2 μg/mL, 5 hours after wounding, FIG. 12", "result": "significantly reduced"}]}
{"substance": "sodium hyaluronate", "values": [{"measurement": "endothelial cell layer of the injured carotid artery (histology)", "setting": "[5]", "result": "intact endothelial cell layer"}, {"measurement": "adherence / accumulation of white cells on the endothelium of the injured carotid artery", "setting": "[5]; listed as Hyaluronan", "result": "abolished"}, {"measurement": "adherence / accumulation of white cells on the endothelium of the injured carotid artery", "setting": "[5]; listed as hyaluronan", "result": "do not exhibit accumulations of white cells"}, {"measurement": "intimal thickening in the cholesterol-fed rabbits", "setting": "[6]; 15 mg/kg i.v. immediately pre-operatively, then daily s.c. for fourteen days", "result": "significantly inhibited"}, {"measurement": "neo-intimal macrophage content in the cholesterol-fed rabbits", "setting": "[6]; 15 mg/kg/d, 2 weeks after injury", "result": "reduced"}, {"measurement": "mean medial thickness compared with the control animals", "setting": "[6]; 2 weeks after injury, p>0.05", "result": "did not differ significantly"}, {"measurement": "Body Weight, Sacrifice", "setting": "[6]; MEAN of HYAL + CHOL group, N=15", "result": 2.64, "unit": "kg"}, {"measurement": "I/M", "setting": "[6]; [8]", "result": 0.59}, {"measurement": "INTIMA", "setting": "[6]; [8]", "result": 65.79, "unit": "microns"}, {"measurement": "Intimal Macrophage Content (%)", "setting": "[6]; [8]", "result": 3.22, "unit": "%"}, {"measurement": "MEDIA", "setting": "[6]; [8]", "result": 105.01, "unit": "microns"}, {"measurement": "Mean weight, Sacrifice", "setting": "[6]; group mean ± SEM, n=15, at sacrifice, Hyal 15 mg/kg/d", "result": "2.64 ± 0.09", "unit": "kg"}, {"measurement": "intima: media ratio", "setting": "[6]; [9]", "result": "0.59±0.011"}, {"measurement": "mean intimal macrophage content", "setting": "[6]; [9]", "result": "3.22±1.05", "unit": "%"}, {"measurement": "I/M", "setting": "[6]; [10]", "result": "0.68 and 1.10 and 0.21 and 0.42 and 0.46 and 0.30 and 1.03 and 0.66 and 0.24 and 1.61 and 0.81 and 0.10 and 0.72 and 0.08 and 0.45"}, {"measurement": "INTIMA", "setting": "[6]; [10]", "result": "82.60 microns and 212.00 microns and 22.00 microns and 55.62 microns and 42.10 microns and 17.44 microns and 76.40 microns and 48.23 microns and 26.63 microns and 187.50 microns and 112.22 microns and 8.44 microns and 84.87 microns and 8.38 microns and 2.35 microns"}, {"measurement": "Intimal Macrophage Content (%)", "setting": "[6]; [10]", "result": "6.90% and 13.20% and 3.10% and 5.50% and 0.17% and 1.10% and 0.40% (2×) and 0.00% (2×) and 1.70% and 7.80% and 0.50% and 4.70% and 2.90%"}, {"measurement": "MEDIA", "setting": "[6]; [10]", "result": "118.90 microns and 200.00 microns and 109.00 microns and 139.14 microns and 91.10 microns and 78.28 microns and 74.70 microns and 74.65 microns and 111.50 microns and 118.72 microns and 143.77 microns and 83.43 microns and 120.62 microns and 105.57 microns and 5.81 microns"}, {"measurement": "Body Weight, Sacrifice", "setting": "[6]; individual animals of the HYAL + CHOL group, at sacrifice", "result": "2.60 kg (2×) and 2.89 kg and 2.91 kg and 3.40 kg and 2.88 kg and 2.81 kg (2×) and 2.25 kg and 2.74 kg and 2.35 kg and 2.15 kg and 2.40 kg and 2.38 kg and 2.42 kg"}, {"measurement": "Body Weight, Start", "setting": "[6]; individual animals of the HYAL + CHOL group, before treatment", "result": 2.25, "unit": "kg"}, {"measurement": "Mean Intimal thickness 2 weeks after injury", "setting": "[6]; [11]", "result": "0.068 ± 0.016", "unit": "mm"}, {"measurement": "Mean intima/media ratio 2 weeks after injury", "setting": "[6]; [11]", "result": "0.59 ± 0.11"}, {"measurement": "Mean intimal macrophage content 2 weeks after injury (% of total cell number)", "setting": "[6]; [11]", "result": "3.22 ± 0.98", "unit": "%"}, {"measurement": "gain in body weight over the three week experimental period", "setting": "[6]; rabbit, in vivo", "result": "approximately 30%"}, {"measurement": "reduction in mean intimal macrophage content", "setting": "[6]; 2 weeks after injury, listed as Hyaluronan", "result": 62, "unit": "%"}, {"measurement": "reduction in mean intimal macrophage content", "setting": "[6]; 2 weeks after injury, listed as hyaluronan", "result": "approximately 62%"}, {"measurement": "reduction of the intima: media ratio", "setting": "[6]; versus cholesterol-fed control group, 2 weeks after injury, 15 mg/kg/d", "result": 35, "unit": "%"}, {"measurement": "reduction of the absolute neo-intimal response to injury (absolute size of the neo-intima)", "setting": "[6]; 2 weeks after injury, 15 mg/kg/d, listed as Hyaluronan", "result": 42, "unit": "%"}, {"measurement": "reduction of the absolute neo-intimal response to injury (absolute size of the neo-intima)", "setting": "[6]; 2 weeks after injury, 15 mg/kg/d, listed as hyaluronan", "result": "approximately 46%"}, {"measurement": "mean I:M ratio", "setting": "[7]; [12]", "result": 0.591}, {"measurement": "mean absolute intimal thickness", "setting": "[7]; [12]", "result": 95.7, "unit": "μm"}, {"measurement": "neo-intimal thickness following balloon angioplasty injury", "setting": "[7]; cholesterol-fed rabbits, FIGS. 20 and 21", "result": "significantly inhibited"}]}
